Results: patent US7928129B1, “Nanomolar β-lactamase inhibitors” (Northwestern University, priority 2002, dated 2011)
Where two headings read alike, the source gives them in different places.

How the values were obtained:
[1] = biological target: T1, AmpC N289A (Escherichia coli, UniProt P00811, N305A); assay: biochemical; format: biochemical
T1 construct: made in house
Experimental: (§1) Enzyme mutagenesis and preparation. Mutants of AmpC were created using the overlap extension polymerase chain reaction (23). Mutant enzymes were expressed as described. AmpC N289A and L293A were purified on an m-aminophenylboronic acid affinity column. AmpC L119A was purified on an S-Sepharose ion-exchange column. The purified enzymes were concentrated using Centricon spin concentrators.
(§2) Mutant Enzymology. The glycylboronic acids were dissolved in DMSO at a concentration of 50 mM; more dilute stocks were subsequently prepared as necessary. Kinetic measurements were performed using nitrocefin as a substrate in 50 mM Tris buffer, pH 7.0, and monitored at 480 nm in an HP9453 UV-vis spectrophotometer. To prevent overestimation of inhibition due to sequestration of the enzyme on the walls of the cuvette during the reaction, 0.1% BSA was added to the buffer in all reactions. […] To determine Ki values, inhibitor and enzyme were incubated together in the cuvettes for 5 min before reaction was initiated by the addition of substrate. 200 μM nitrocefin was used for the reactions with L119A and L293A, whereas 400 μM nitrocefin was used for the reactions with N289A to shorten the lag phase of the reaction. For the reactions with N289A, rates were calculated from the later portions of the curve, once the reactions had achieved steady state. These rates were compared with portions of the uninhibited curves that corresponded to the same range of substrate concentrations.

[2] = biological target: T2, AmpC β-lactamase (Escherichia coli, UniProt P00811); assay: biochemical; conditions: for fold more potent than the lead compound lacking the m.carboxyphenyl side chain: 15 versus 1, 16 versus 4
T2 construct: made in house
Experimental: Enzymology. The phenylglycylboronic acids of the preceding examples were dissolved in DMSO at a concentration of 50 mM; more dilute stocks (10 mM to 1 μM) were subsequently prepared as necessary. Kinetic measurements were performed using nitrocefin as substrate in 50 mM Tris buffer, pH 7.0 and monitored in an HP8453 UV/Vis spectrophotometer. The concentration of AmpC was determined spectrophotometrically in stock solutions made from lyophilized powder; this enzyme had been previously expressed and purified. Usher, K. C., Blaszczak, L. C., Weston, G. S., Shoichet, B. K. and Remington, S. J. Biochemistry 1998, 37, 16082-16092. […] To determine K, values, inhibitor and enzyme were incubated together at their final concentration in the cuvettes for five minutes before the reaction was initiated by the addition of 200 μM substrate. […] Waley, S. G. Biochem. J. 1982, 205 631-633. […] In all reactions, rates were measured after reactions had overcome their initial lag phase and had reached a steady state.
as §2

[3] = test system: eight clinically isolated bacterial pathogens producing class C β-lactamases; format: cell-based; conditions: against all strains
Experimental: Microbiology. Compounds 16 and 21 were tested for synergy with the β-lactam ceftazidime against pathogenic bacteria from clinical isolates at the Hospital Ramón y Cajal; these bacteria were resistant to β-lactams due to expression of a class C β-lactamase. […] Minimum inhibitor concentration (MIC) values were determined with Mueller-Hinton Broth II using the microdilution method according to NCCLS guidelines. National Committee for Clinical Laboratory Standards, Methods for dilution antimicrobial susceptibility test for bacteria that grow aerobically. Approved Standard M7-A4, 1997, vol. 17, National Committee for Clinical Laboratory Standards, Villanova, Pa.

[4] = biological target: elastase (porcine pancreatic) (Sus scrofa, UniProt P00772); assay: biochemical; conditions: for selectivity for AmpC over elastase: ratio of IC50 values
Experimental: (§3) Selectivity. The selectivity of compounds 16 and 21 was tested by determining their activity against the serine proteases α-chymotrypsin (bovine pancreatic), β-trypsin (bovine pancreatic), and elastase (porcine pancreatic), all from Sigma (St. Louis, Mo.). The substrates for α-chymotrypsin (succinyl-ala-ala-pro-phe-p-nitroanilide) and β-trypsin (N-benzoyl-L-arginine ethyl ester) were also purchased from Sigma. The elastase substrate (MeOSuc-Ala-Ala-Pro-Val-pNA) was purchased from Calbiochem (San Diego, Calif.). Substrates were diluted from 20 mM DMSO stock solutions, and all reactions were performed in 50 mM Tris buffer, pH 7.0, 25° C. For α-chymotrypsin, 0.001 mg/ml of enzyme and the inhibitor at its final concentration were incubated in the cuvette for five minutes before the reaction was initiated by the addition of 200 μM of substrate. The reaction was monitored at 410 nm. For β-trypsin, 0.004 mg/ml of enzyme and the inhibitor at its final concentration were incubated in the cuvette for five minutes before the reaction was initiated by the addition of 200 μM of substrate. The reaction was monitored at 253 nm. For elastase, 0.006 mg/ml of enzyme and the inhibitor at its final concentration were incubated in the cuvette for five minutes before the reaction was initiated by the addition of 640 μM of substrate. The reaction was monitored at 385 nm. Initial rate fits to the absorbance data for the first 100 seconds were used to determine reaction velocities.

[5] = biological target: α-chymotrypsin (bovine pancreatic) (Bos taurus, UniProt P00766); assay: biochemical; conditions: for selectivity for AmpC over α-chymotrypsin: ratio of IC50 values
Experimental: as §3

[6] = biological target: β-trypsin (bovine pancreatic) (Bos taurus, UniProt P00760); assay: Selectivity: serine protease β-trypsin; format: biochemical; conditions: 50 mM Tris pH 7.0, 25° C.
Excerpt: Selectivity. […] The reaction was monitored at 410 nm. […] The reaction was monitored at 253 nm. […] The reaction was monitored at 385 nm.

[7] = biological target: T3, AmpC L293A (Escherichia coli, UniProt P00811, L309A); assay: biochemical; format: biochemical
T3 construct: made in house
Experimental: as §1, §2

[8] = biological target: T4, AmpC L119A (Escherichia coli, UniProt P00811, L135A); assay: biochemical; format: biochemical
T4 construct: made in house
Experimental: as §1, §2

[9] = test system: P. aeruginosa JMSMA7; assay: MIC, synergy with ceftazidime, microdilution; format: cell-based; conditions: Pseudomonas aeruginosa, P. aeruginosa 2, ceftazidime to inhibitor 1:1 in combinations
Experimental: (§4) Microbiology. Compounds 16 and 21 were tested for synergy with the β-lactam ceftazidime against pathogenic bacteria from clinical isolates at the Hospital Ramón y Cajal; these bacteria were resistant to β-lactams due to expression of a class C β-lactamase. Strains of bacteria tested were: Citrobacter freundii mut756-CAZ, Escherichia coli 72929 Hip, E. coli 4774 Hip (Table 4, E. coli 1 and 2, respectively), Enterobacter cloacae 72527 ED, E. cloacae 8411 CAZ-R clon7, E. cloacae 12991 ED (Table 4, E. cloacae 1, 2, and 3, respectively), Pseudomonas aeruginosa 279/88, and P. aeruginosa JMSMA7 (Table 4, P. aeruginosa 1 and 2, respectively). Minimum inhibitor concentration (MIC) values were determined with Mueller-Hinton Broth II using the microdilution method according to NCCLS guidelines. National Committee for Clinical Laboratory Standards, Methods for dilution antimicrobial susceptibility test for bacteria that grow aerobically. Approved Standard M7-A4, 1997, vol. 17, National Committee for Clinical Laboratory Standards, Villanova, Pa.

[10] = test system: Escherichia coli 72929 Hip; assay: MIC, synergy with ceftazidime, microdilution; format: cell-based; conditions: E. coli 1, ceftazidime to inhibitor 1:1 in combinations
Experimental: as §4

[11] = biological target: T2, AmpC β-lactamase; conditions: glycylboronic acid previously found, no buffer footnote; cited from earlier work
[12] = differential free energy of binding relative to compound 1, 298 K, positive = improved affinity

T2 sequence (P00811 20-377): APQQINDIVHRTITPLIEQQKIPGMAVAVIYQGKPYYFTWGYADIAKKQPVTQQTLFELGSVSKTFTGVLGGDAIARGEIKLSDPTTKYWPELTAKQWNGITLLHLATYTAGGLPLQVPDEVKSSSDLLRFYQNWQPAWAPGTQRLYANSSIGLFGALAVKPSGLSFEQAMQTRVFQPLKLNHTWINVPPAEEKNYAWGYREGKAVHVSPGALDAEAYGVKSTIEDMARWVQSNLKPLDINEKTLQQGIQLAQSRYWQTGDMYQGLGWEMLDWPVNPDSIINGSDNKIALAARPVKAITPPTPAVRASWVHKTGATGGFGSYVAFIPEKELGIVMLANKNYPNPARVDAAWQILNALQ
T4 sequence (P00811 20-377 L135A): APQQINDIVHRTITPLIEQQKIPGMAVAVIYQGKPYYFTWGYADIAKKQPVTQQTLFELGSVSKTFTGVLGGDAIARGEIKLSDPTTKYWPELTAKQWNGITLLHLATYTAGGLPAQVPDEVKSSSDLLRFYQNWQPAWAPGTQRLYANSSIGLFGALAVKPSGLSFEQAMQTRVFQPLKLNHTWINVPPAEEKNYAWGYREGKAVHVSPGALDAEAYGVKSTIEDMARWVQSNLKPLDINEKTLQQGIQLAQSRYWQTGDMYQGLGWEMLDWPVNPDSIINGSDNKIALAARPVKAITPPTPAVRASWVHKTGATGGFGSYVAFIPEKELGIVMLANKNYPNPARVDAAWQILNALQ
T3 sequence (P00811 20-377 L309A): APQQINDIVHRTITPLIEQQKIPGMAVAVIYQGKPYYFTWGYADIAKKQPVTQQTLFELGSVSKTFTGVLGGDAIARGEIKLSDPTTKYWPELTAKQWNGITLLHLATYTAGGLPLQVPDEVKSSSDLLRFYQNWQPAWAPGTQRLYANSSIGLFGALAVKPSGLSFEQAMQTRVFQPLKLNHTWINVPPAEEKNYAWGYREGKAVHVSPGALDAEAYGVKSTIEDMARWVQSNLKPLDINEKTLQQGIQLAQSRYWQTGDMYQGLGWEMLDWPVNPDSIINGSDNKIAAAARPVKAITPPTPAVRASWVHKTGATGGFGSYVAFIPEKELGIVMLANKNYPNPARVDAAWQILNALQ
T1 sequence (P00811 20-377 N305A): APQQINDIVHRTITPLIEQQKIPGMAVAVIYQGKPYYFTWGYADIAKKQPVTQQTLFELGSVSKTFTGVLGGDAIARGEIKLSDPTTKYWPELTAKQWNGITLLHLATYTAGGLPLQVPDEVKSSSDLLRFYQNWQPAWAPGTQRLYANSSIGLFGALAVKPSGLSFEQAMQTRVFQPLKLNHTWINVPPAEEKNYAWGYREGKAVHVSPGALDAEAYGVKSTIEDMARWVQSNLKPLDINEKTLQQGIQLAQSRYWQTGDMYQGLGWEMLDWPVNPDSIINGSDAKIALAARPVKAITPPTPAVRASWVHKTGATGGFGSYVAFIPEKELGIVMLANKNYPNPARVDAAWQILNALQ
elastase (porcine pancreatic), sequence (P00772 27-266): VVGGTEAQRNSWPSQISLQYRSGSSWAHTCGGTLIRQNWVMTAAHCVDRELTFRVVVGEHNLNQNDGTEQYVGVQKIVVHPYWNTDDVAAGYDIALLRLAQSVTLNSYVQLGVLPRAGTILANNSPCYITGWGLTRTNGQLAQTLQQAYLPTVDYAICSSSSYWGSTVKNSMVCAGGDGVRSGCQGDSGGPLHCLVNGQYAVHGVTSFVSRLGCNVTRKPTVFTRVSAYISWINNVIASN
β-trypsin (bovine pancreatic), sequence (P00760 24-246): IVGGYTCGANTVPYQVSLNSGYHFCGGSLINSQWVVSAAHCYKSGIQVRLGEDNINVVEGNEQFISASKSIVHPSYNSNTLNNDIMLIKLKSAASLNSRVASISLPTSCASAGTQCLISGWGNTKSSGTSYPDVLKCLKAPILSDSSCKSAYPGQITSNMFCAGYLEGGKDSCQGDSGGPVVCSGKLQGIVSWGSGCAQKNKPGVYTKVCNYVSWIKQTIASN

SMILES: O=C(Cc1cccs1)N[C@H](B(O)O)c1cccc(C(=O)O)c1 [Compound 16, (1R)-1-(2-thienylacetylamino)-1-(3-carboxyphenyl)methylboronic acid]
- Ki [1]: 0.017 µM
- reduction of affinity by the N289A substitution versus the wild-type enzyme [1]: 17 fold
- ΔΔΔG, hydrogen bond energy between Asn289 and the inhibitor group ([1]; thermodynamic cycle, WT AmpC / N289A, mutant ligand 21): 1.7 kcal/mol
- IC50 [2]: 0.0026 µM
- Ki [2]: 0.001 µM
- type of inhibition of AmpC [2]: time-dependent inhibition
- Ki ([2]; 50 mM Tris pH 7.0, 200 μM nitrocefin, 5 min incubation): 0.001 µM
- fold more potent than the lead compound lacking the m.carboxyphenyl side chain [2]: 300 fold
- ΔΔG from 1 [2, 12]: 5.82 kcal/mol
- improvement of binding energy by addition of the m.carboxyphenyl side chain ([2]; versus lead lacking the side chain): 3.4 kcal/mol
- synergy with ceftazidime [3]: showed synergy
- IC50 [4]: 500 µM
- selectivity for AmpC over elastase [4]: 190,000 fold
- IC50 [5]: 150 µM
- selectivity for AmpC over α-chymotrypsin [5]: 57,000 fold
- IC50 [6]: > 1000 µM

SMILES: Cc1onc(-c2ccccc2Cl)c1C(=O)N[C@H](B(O)O)c1cccc(C(=O)O)c1 [Compound 17, (1R)-1-{[3-(2-Chlorophenyl)-5-methyl-isoxazole-4-carbonyl]-amino}-1-(3-carboxyphenyl)methylboronic acid]
- Ki [2]: 5.7 µM
- binding energy made worse by addition of the m.carboxyphenyl group ([2]; 17 versus 2): about 2 kcal/mol
- fold less potent (higher Ki) than compound 2 lacking the m.carboxyphenyl group ([2]; 17 versus 2): 40 fold
- ΔΔG from 1 [2, 12]: 0.70 kcal/mol
- melting point: 180 to 190 °C

SMILES: O=C(Cc1cccs1)N[C@@H]1C(=O)N2C(C(=O)O)=C(/C=C/c3ccc([N+](=O)[O-])cc3[N+](=O)[O-])CS[C@H]12 [nitrocefin, reference compound]
- Km ([1]; read-out: KM of nitrocefin, N289A): 27 µM
- Km ([7]; read-out: KM of nitrocefin, L293A): 33 µM

SMILES: CC(=O)N[C@H](B(O)O)c1cccc(C(=O)O)c1 [Compound 15, (1R)-1-acetylamino-1-(3-carboxyphenyl)methylboronic acid]
- Ki [2]: 0.13 µM
- fold more potent than the lead compound lacking the m.carboxyphenyl side chain [2]: 150 fold
- ΔΔG from 1 [2, 12]: 2.95 kcal/mol

SMILES: CC(=O)NCB(O)O [Compound 1, reference compound]
- ΔΔG from 1 [2, 12]: 0.00 kcal/mol

SMILES: O=C(Cc1cccs1)NCB(O)O [Compound 4, reference compound]
- Ki [8]: 0.676 µM
- Ki [7]: 6.2 µM
- Ki [2]: 0.186 µM

SMILES: CC1(C)C2CC3OB([C@@H](NC(=O)Cc4cccs4)c4cccc(C=O)c4)O[C@@]3(C)C1C2 (single isomer, unassigned; (+)) [Compound 26]
- Ki [1]: 0.018 µM
- Ki [2]: 0.015 µM

SMILES: CC(C)(O/N=C(\C(=O)N[C@@H]1C(=O)N2C(C(=O)[O-])=C(C[n+]3ccccc3)CS[C@H]12)c1csc(N)n1)C(=O)O [CAZ, ceftazidime]
- MIC [9]: 64 µg/mL
- MIC [10]: 32 µg/mL

SMILES: CC(C)(O/N=C(\C(=O)NCB(O)O)c1csc(N)n1)C(=O)O [Compound 3, reference compound]
- ΔΔG from 1 (kcal/mol) [2, 12]: 4.04 — kcal/mol
- Ki [11]: 0.02 µM

SMILES: O=C(Cc1cccs1)N[C@H](B(O)O)c1ccccc1 [Compound 21, (1R)-1-(2-thienylacetylamino)-1-phenylmethylboronic acid]
- Ki [1]: 0.037 µM
- fall in affinity relative to the affinity of 16 for the mutant ([1]; AmpC N289A): 2 fold
- Ki [8]: 0.012 µM
- ΔΔΔG, interaction between the inhibitor phenyl ring and Leu119 ([8]; thermodynamic cycle, WT AmpC / L119A, L=21, L′=4, negative = unfavorable): -1.4 kcal/mol
- Ki [7]: 0.521 µM
- ΔΔΔG, interaction between the inhibitor phenyl ring and Leu293 ([7]; thermodynamic cycle, WT AmpC / L293A, L=21, L′=4, negative = unfavorable): -0.5 kcal/mol
- reduction of affinity by the L293→Ala substitution ([7]; versus wild-type AmpC): 1.6 kcal/mol
- IC50 [2]: 0.09 µM
- Ki [2]: 0.035 µM
- ΔΔG from 1 [2, 12]: 3.71 kcal/mol
- fold less active than compound 16 ([2]; wild-type AmpC): 35 fold
- melting point: 90 to 100 °C
- synergy with ceftazidime [3]: showed synergy
- IC50 [4]: 128 µM
- selectivity for AmpC over elastase [4]: 1,400 fold
- IC50 [5]: 6 µM
- selectivity for AmpC over α-chymotrypsin [5]: 60 fold
- IC50 [6]: > 1000 µM
